Measurements taken from ChEMBL document CHEMBL1148100, “Structure-activity relationships of norditerpenoid alkaloids occurring in toxic larkspur (Delphinium) species” (J Nat Prod, 1995).

Test: Toxicity in iv dosed Swiss-Webster mouse
Type: organism-based
Conditions: in vivo

| Structure (SMILES) | LD50 |
| --- | --- |
| CCN1C[C@]2(COC(=O)c3ccccc3N3C(=O)CC(C)C3=O)CC[C@H](OC)[C@]34C1[C@](O)([C@@H](OC)[C@H]23)[C@@]1(O)C[C@H](OC)[C@H]2C[C@@H]4[C@@H]1[C@H]2O (stereo partly drawn) | 4 mg/kg |
| CCN1C[C@]2(C)CC[C@H](OC)[C@@]34C1[C@]1(OCO[C@@]15C[C@H](OC)[C@H]1C[C@]3(O)[C@@H]5[C@H]1OC)[C@@H](OC(C)=O)[C@H]24 [DELTALINE] | 200 mg/kg |
| CO[C@H]1[C@@H]2C[C@@H]3[C@H]1[C@](O)(C[C@@H]2OC)[C@]1(O)C2NC[C@]4(COC(=O)c5ccccc5N5C(=O)CC(C)C5=O)CC[C@H](OC)[C@@]23[C@@H]4[C@@H]1OC (stereo partly drawn) | 100 mg/kg |
| CCN1C[C@]2(COC(=O)c3ccccc3N3C(=O)C[C@H](C)C3=O)CC[C@H](OC)[C@@]34[C@@H]5C[C@H]6[C@H](OC)[C@@H]5[C@](O)(C[C@@H]6OC)[C@](O)([C@@H](OC)[C@H]23)[C@@H]14 [METHYLLYCACONITINE] | 7.5 mg/kg |
| CCN1C[C@]2(COC(=O)c3ccccc3N)CC[C@H](OC)[C@]34C1[C@](O)([C@@H](OC)[C@H]23)[C@@]1(O)C[C@H](OC)[C@H]2C[C@@H]4[C@@H]1[C@H]2OC [ANTHRANOYLLYCOCTONINE] | 20.8 mg/kg |
| CCN1C[C@]2(COC(=O)c3ccccc3N3C(=O)C[C@H](C)C3=O)CC[C@H](OC)[C@@]34C1[C@@]1(OCO[C@@]15C[C@H](OC)[C@H]1C[C@@H]3[C@@H]5[C@H]1OC)[C@@H](OC)[C@H]24 [ELATINE] | 9.2 mg/kg |
| CCN1C[C@]2(CO)CC[C@H](OC)[C@@]34[C@@H]5C[C@H]6[C@H](OC)[C@@H]5[C@](O)(C[C@@H]6OC)[C@](O)([C@@H](OC)[C@H]23)[C@@H]14 [LYCOCTONINE] | 444 mg/kg |
| CO[C@H]1[C@@H]2C[C@@H]3[C@H]1[C@](O)(C[C@@H]2OC)[C@]1(O)C2NC(=O)[C@]4(COC(=O)c5ccccc5N5C(=O)CC(C)C5=O)CC[C@H](OC)[C@@]23[C@@H]4[C@@H]1OC (stereo partly drawn) [ZALILINE] | > 230 mg/kg |
| CCN1C[C@]2(COC(=O)c3ccccc3N3C(=O)CC(C)C3=O)CC[C@H](OC)[C@]34C1[C@](O)([C@@H](OC)[C@H]23)[C@@]1(O)C[C@H](OC)[C@H]2C[C@@H]4[C@@H]1C2=O (stereo partly drawn) [BARBININE] | 57 mg/kg |
| CO[C@H]1[C@@H]2C[C@@H]3[C@H]1[C@](O)(C[C@@H]2OC)[C@]1(O)C2N=C[C@]4(COC(=O)c5ccccc5N5C(=O)CC(C)C5=O)CC[C@H](OC)[C@@]23[C@@H]4[C@@H]1OC (stereo partly drawn) [ANHWEIDELPHININE] | > 177 mg/kg |
| CCN1C[C@]2(C)CC[C@H](OC)[C@@]34C1[C@]1(OCO[C@@]15C[C@H](OC)[C@H]1C[C@]3(O)[C@@H]5[C@H]1O)[C@@H](OC(C)=O)[C@H]24 [DICTYOCARPINE] | 283 mg/kg |
| CO[C@H]1[C@@H]2C[C@]3(O)[C@H]1[C@@]1(C[C@@H]2OC)OCO[C@]12C1NC[C@]4(C)CC[C@H](OC)[C@@]13[C@@H]4[C@@H]2OC(C)=O | 210 mg/kg |
| CCN1C[C@]2(COC(=O)c3ccccc3N3C(=O)C[C@H](C)C3=O)CC[C@H](OC)[C@]34C5C[C@@H]6[C@@H](OC)C[C@@](O)(C5[C@H]6OC(C)=O)[C@](O)(C13)[C@@H](OC)C24 (stereo partly drawn) [NUDICAULINE] | 2.7 mg/kg |
